Experimental data published in PMC6270991, “Design and Synthesis of Thiazolo[5,4-f]quinazolines as DYRK1A Inhibitors, Part I” (Molecules, 2014).
Where two headings read alike, the source gives them in different places.

What was measured:
GSK-3α/β = GSK-3α/β in vitro kinase assay (33P-ATP, GS-1 peptide); assay type: biochemical, Porcine; conditions: 15 μM ATP, 30 min at 30 °C, triplicate; <50% inhibition at 10 µM reported as >10; read-out: GSK3 IC50
Procedure: (§1) Buffer A: MgCl2 (10 mM), 1 mM ethylene glycol-bis(2-aminoethylether)-N,N,N',N'-tetraacetic acid (EGTA), 1 mM dithiothreitol (DTT), 25 mM Tris-HCl pH 7.5, 50 μg heparin/mL.
(§2) Controls were performed with appropriate dilutions of dimethylsulfoxide (DMSO). IC50 values were calculated from dose-response curves established by Sigma-Plots. The GSK-3, CK1, DYRK1A and CLK1 peptide substrates were obtained from Proteogenix (Oberhausbergen, France).
(§3) CDK5/p25. (Human, recombinant) was prepared as previously described. […] ATP (3000 Ci/mmol; 10 mCi/mL) in a final volume of 30 μL. After 30 min incubation at 30 °C, 25 μL aliquots of supernatant were spotted onto sheets of Whatman P81 phosphocellulose paper, and 20 s later, the filters were washed eight times (for at least 5 min each time) in a solution of 10 mL phosphoric acid/L of water. The wet filters were counted in the presence of 1 mL ACS (Amersham) scintillation fluid.
GSK-3α/β. (Porcine brain, native) was assayed as described for CDK5/p25, but in buffer A and using a GSK-3 specific substrate (GS-1: […]pSEDEEE) (pS stands for phosphorylated serine).

CK1δ/ε = CK1δ/ε in vitro kinase assay (33P-ATP, CK1-specific peptide substrate); assay type: biochemical, Porcine; conditions: 15 μM ATP, 30 min at 30 °C, triplicate; <50% inhibition at 10 µM reported as >10
Procedure: as §2, §3
CK1δ/ε. (Porcine brain, native) was assayed as described for CDK5/p25, but using the CK1-specific peptide substrate […]pSAYSITA [23].

CDK5/p25 = target: T1, CDK5/p25 (Homo sapiens, UniProt Q00535); experiment: CDK5/p25 in vitro kinase assay (33P-ATP, histone H1); assay type: biochemical
T1 construct: made in house
Procedure: as §1, §2, §3

DYRK1A = DYRK1A (Rattus norvegicus, UniProt Q63470); experiment: DYRK1A in vitro kinase assay (33P-ATP, Woodtide substrate); assay type: biochemical
Procedure: as §1, §2, §3

[1] = 15 μM ATP, 30 min at 30 °C, triplicate, <50% inhibition at 10 µM reported as >10, read-out: CDK5 IC50
[2] = 15 μM ATP, 30 min at 30 °C, triplicate, <50% inhibition at 10 µM reported as >10

T1 sequence (Q00535 whole entry): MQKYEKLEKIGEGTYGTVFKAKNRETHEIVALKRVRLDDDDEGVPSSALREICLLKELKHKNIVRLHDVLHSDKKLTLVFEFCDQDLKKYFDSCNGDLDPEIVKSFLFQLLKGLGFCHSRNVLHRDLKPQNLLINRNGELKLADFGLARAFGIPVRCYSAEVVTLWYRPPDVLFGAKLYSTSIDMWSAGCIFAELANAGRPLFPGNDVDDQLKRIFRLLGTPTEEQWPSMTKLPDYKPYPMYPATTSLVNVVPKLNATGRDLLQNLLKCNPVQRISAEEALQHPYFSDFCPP
T1 sequence (Q15078 99-307 partner limits assumed): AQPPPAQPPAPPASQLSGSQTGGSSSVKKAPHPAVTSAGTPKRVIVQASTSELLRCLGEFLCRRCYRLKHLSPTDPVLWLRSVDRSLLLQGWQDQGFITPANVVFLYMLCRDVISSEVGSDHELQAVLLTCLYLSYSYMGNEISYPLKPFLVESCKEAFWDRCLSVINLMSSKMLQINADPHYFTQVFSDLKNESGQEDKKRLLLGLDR

Row | IC50 (GSK-3α/β) [µM] | IC50 (CK1δ/ε) [µM] | IC50 (CDK5/p25; read-out: CDK5 IC50) [µM] | IC50 (DYRK1A) [µM] | SMILES | IC50 (CDK5/p25) [µM] | IC50 (CDK5/p25; [1]) [µM] | IC50 (DYRK1A; [2]) [µM]
1 | 1.1 | > 10 | > 10 | > 10 | COc1ccc(Nc2ncnc3ccc4nc(C(=N)NCCN5CCOCC5)sc4c23)cc1 [Compound 7a, 9-(4-Methoxyphenylamino)-N-(2-morpholinoethyl)thiazolo[5,4-f]quinazoline-2-carboximidamide] | – | – | –
2 | 2.5 | > 10 | > 10 | > 10 | COc1ccc(Nc2ncnc3ccc4nc(C(=N)NCCN5CCCCC5)sc4c23)cc1 [Compound 7b, 9-(4-Methoxyphenylamino)-N-(2-(piperidin-1-yl)ethyl)thiazolo[5,4-f]quinazoline-2-carboximidamide] | – | – | –
3 | 2 | > 10 | > 10 | > 10 | COc1ccc(Nc2ncnc3ccc4nc(C(=N)NCCN5CCCC5)sc4c23)cc1 [Compound 7c, 9-(4-Methoxyphenylamino)-N-(2-(pyrrolidin-1-yl)ethyl)thiazolo[5,4-f]quinazoline-2-carboximidamide] | – | – | –
4 | > 10 | > 10 | > 10 | > 10 | COc1ccc(Nc2ncnc3ccc4nc(C(=N)NCCN(C)C)sc4c23)cc1 [Compound 7d, N-(2-(Dimethylamino)ethyl)-9-(4-methoxyphenylamino)thiazolo[5,4-f]quinazoline-2-carboximidamide] | – | – | –
5 | 1.3 | > 10 | > 10 | 4 | CCN(CC)CCNC(=N)c1nc2ccc3ncnc(Nc4ccc(OC)cc4)c3c2s1 [Compound 7e, N-(2-(Diethylamino)ethyl)-9-(4-methoxyphenylamino)thiazolo[5,4-f]quinazoline-2-carboximidamide] | – | – | –
6 | 2 | > 10 | > 10 | 8 | COc1ccc(Nc2ncnc3ccc4nc(C(=N)NCc5ccccc5)sc4c23)cc1 [Compound 7f, N-Benzyl-9-(4-methoxyphenylamino)thiazolo[5,4-f]quinazoline-2-carboximidamide] | – | – | –
7 | 1.1 | > 10 | > 10 | 0.7 | COc1ccc(Nc2ncnc3ccc4nc(C(=N)N(C)C)sc4c23)cc1 [Compound 7g, 9-(4-Methoxyphenylamino)-N,N-dimethylthiazolo[5,4-f]quinazoline-2-carboximidamide] | – | – | –
8 | 0.2 | > 10 | > 10 | – | COC(=N)c1nc2ccc3ncnc(Nc4ccc(OC)cc4)c3c2s1 [Compound 7i, Methyl 9-(4-methoxyphenylamino)thiazolo[5,4-f]quinazoline-2-carbimidate] | – | – | –
9 | 0.97 | > 10 | > 10 | 2.2 | N=C(NCCN1CCOCC1)c1nc2ccc3ncnc(Nc4ccc5c(c4)OCO5)c3c2s1 [Compound 8a, 9-(Benzo[d][1,3]dioxol-5-ylamino)-N-(2-morpholinoethyl)thiazolo[5,4-f]quinazoline-2-carboximidamide] | – | – | –
10 | 1.1 | > 10 | – | – | N=C(NCCN1CCCCC1)c1nc2ccc3ncnc(Nc4ccc5c(c4)OCO5)c3c2s1 [Compound 8b, 9-(Benzo[d][1,3]dioxol-5-ylamino)-N-(2-(piperidin-1-yl)ethyl)thiazolo[5,4-f]quinazoline-2-carboximi-damide] | – | > 10 | 2
11 | 2 | > 10 | > 10 | > 10 | N=C(NCc1ccccc1)c1nc2ccc3ncnc(Nc4ccc5c(c4)OCO5)c3c2s1 [Compound 8f, 9-(Benzo[d][1,3]dioxol-5-ylamino)-N-benzylthiazolo[5,4-f]quinazoline-2-carboximidamide] | – | – | –
12 | 0.77 | > 10 | > 10 | 0.8 | NC(=O)c1nc2ccc3ncnc(Nc4ccc5c(c4)OCO5)c3c2s1 [Compound 8h, 9-(Benzo[d][1,3]dioxol-5-ylamino)thiazolo[5,4-f]quinazoline-2-carboxamide] | – | – | –
13 | 0.66 | > 10 | > 10 | 0.047 | COC(=N)c1nc2ccc3ncnc(Nc4ccc5c(c4)OCO5)c3c2s1 [Compound 8i, Methyl 9-(benzo[d][1,3]dioxol-5-ylamino)thiazolo[5,4-f]quinazoline-2-carbimidate] | – | – | –
14 | 1.8 | > 10 | – | – | N=C(NCCN1CCOCC1)c1nc2ccc3ncnc(Nc4ccc(Br)cc4F)c3c2s1 [Compound 9a, 9-(4-Bromo-2-fluorophenylamino)-N-(2-morpholinoethyl)thiazolo[5,4-f]quinazoline-2-carboximid-amide] | – | > 10 | > 10
15 | 0.16 | > 10 | > 10 | – | COC(=N)c1nc2ccc3ncnc(Nc4ccc(Br)cc4F)c3c2s1 [Compound 9i, Methyl 9-(4-bromo-2-fluorophenylamino)thiazolo[5,4-f]quinazoline-2-carbimidate] | – | – | –
16 | – | – | > 10 | – | COC(=N)c1nc2ccc3ncnc(Nc4ccc(F)c(Cl)c4)c3c2s1 [Compound 10i, Methyl 9-(3-chloro-4-fluorophenylamino)thiazolo[5,4-f]quinazoline-2-carbimidate] | – | – | –

Row | SMILES | IC50 (GSK-3α/β) [µM] | IC50 (CK1δ/ε) [µM] | IC50 (CDK5/p25; read-out: CDK5 IC50) [µM] | IC50 (DYRK1A) [µM] | IC50 (CDK5/p25) [µM] | IC50 (CDK5/p25; [1]) [µM] | IC50 (DYRK1A; [2]) [µM]
17 | COc1ccc(Nc2ncnc3ccc4nc(C(N)=O)sc4c23)cc1 [Compound 7h, 9-(4-Methoxyphenylamino)thiazolo[5,4-f]quinazoline-2-carboxamide] | 0.3 | > 10 | – | – | > 10 | – | –
18 | N=C(NCCN1CCCC1)c1nc2ccc3ncnc(Nc4ccc5c(c4)OCO5)c3c2s1 [Compound 8c, 9-(Benzo[d][1,3]dioxol-5-ylamino)-N-(2-(pyrrolidin-1-yl)ethyl)thiazolo[5,4-f]quinazoline-2-carboxi-midamide] | 0.36 | > 10 | – | – | – | > 10 | 1.1
19 | CN(C)CCNC(=N)c1nc2ccc3ncnc(Nc4ccc5c(c4)OCO5)c3c2s1 [Compound 8d, 9-(Benzo[d][1,3]dioxol-5-ylamino)-N-(2-(dimethylamino)ethyl)thiazolo[5,4-f]quinazoline-2-carboxi-midamide] | 0.25 | > 10 | – | – | – | > 10 | 1.05
20 | CCN(CC)CCNC(=N)c1nc2ccc3ncnc(Nc4ccc5c(c4)OCO5)c3c2s1 [Compound 8e, 9-(Benzo[d][1,3]dioxol-5-ylamino)-N-(2-(diethylamino)ethyl)thiazolo[5,4-f]quinazoline-2-carboxi-midamide] | 0.8 | > 10 | – | – | – | > 10 | 6.5
21 | N=C(NCCN1CCCCC1)c1nc2ccc3ncnc(Nc4ccc(Br)cc4F)c3c2s1 [Compound 9b, 9-(4-Bromo-2-fluorophenylamino)-N-(2-(piperidin-1-yl)ethyl)thiazolo[5,4-f]quinazoline-2-carboxi-midamide] | 0.53 | > 10 | – | – | – | > 10 | > 10
22 | N=C(NCCN1CCCC1)c1nc2ccc3ncnc(Nc4ccc(Br)cc4F)c3c2s1 [Compound 9c, 9-(4-Bromo-2-fluorophenylamino)-N-(2-(pyrrolidin-1-yl)ethyl)thiazolo[5,4-f]quinazoline-2-carboxi-midamide] | 2.2 | > 10 | – | – | – | > 10 | > 10
23 | NC(=O)c1nc2ccc3ncnc(Nc4ccc(F)c(Cl)c4)c3c2s1 [Compound 10h, 9-(3-Chloro-4-fluorophenylamino)thiazolo[5,4-f]quinazoline-2-carboxamide] | 0.66 | > 10 | – | – | > 10 | – | –
